Assay results published in ChEMBL document CHEMBL1201862, “PubChem BioAssay data set” (2004).
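Cultured in 96-well plates, cells were exposed to test compound for 48 hours across five concentrations. GI50: concentration for 50% inhibition of growth.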 The source made the active and inactive calls. No stated cut-off is given here; in the data, active = GI50 up to about 1.1 µM and inactive = higher.

How the values were obtained:
Assay in all cases: inhibition of tumour cell growth, NCI panel, 48 h
786-0 = system: 786-0
OVCAR-8 = system: OVCAR-8
SN12C = system: SN12C
SK-MEL-28 = system: SK-MEL-28
HCT-116 = system: HCT-116
OVCAR-3 = system: OVCAR-3
NCI/ADR-RES = system: NCI/ADR-RES
Malme-3M = system: Malme-3M
T47D = system: T47D
LOX IMVI = system: LOX IMVI
NCI-H23 = system: NCI-H23
MDA-MB-435 = system: MDA-MB-435
SW-620 = system: SW-620
K562 = system: K562
SR = system: SR
SNB-75 = system: SNB-75
MCF7 = system: MCF7
HCC 2998 = system: HCC 2998
SF-539 = system: SF-539

Measured: GI50

NC(Cc1ccccc1)P(=O)(O)O (configuration not stated)
inactive: 786-0 > 100 µM | OVCAR-8 > 100 µM | SN12C > 100 µM | SK-MEL-28 > 100 µM | HCT-116 > 100 µM | OVCAR-3 > 100 µM | NCI/ADR-RES > 100 µM | Malme-3M > 100 µM | T47D > 100 µM | LOX IMVI > 100 µM | NCI-H23 > 100 µM | MDA-MB-435 > 100 µM | SW-620 > 100 µM | K562 > 100 µM | SR > 100 µM

O=c1c2ccccc2c2ccccc2c(=O)n1-c1cc2c3ccccc3ccc2c2ccccc12
inactive: 786-0 > 100 µM | OVCAR-8 > 100 µM | SN12C 84.5 µM | SK-MEL-28 > 100 µM | HCT-116 > 100 µM | OVCAR-3 > 100 µM | NCI/ADR-RES > 100 µM | SNB-75 > 100 µM | Malme-3M > 100 µM | T47D > 100 µM | MCF7 91.8 µM | HCC 2998 22.3 µM | LOX IMVI > 100 µM | NCI-H23 > 100 µM | MDA-MB-435 > 100 µM | SW-620 > 100 µM | SF-539 > 100 µM

Cc1cc(Cl)ccc1OCC(=O)Oc1c(Cl)c(Cl)c(Cl)c(Cl)c1Cl
inactive: 786-0 29.4 µM | OVCAR-8 26 µM | SN12C 25.4 µM | SK-MEL-28 27.7 µM | HCT-116 20.8 µM | OVCAR-3 18.2 µM | NCI/ADR-RES 25.4 µM | SNB-75 26.6 µM | Malme-3M 19.2 µM | MCF7 26.8 µM | HCC 2998 25.2 µM | LOX IMVI 22.5 µM | NCI-H23 26.4 µM | MDA-MB-435 24.2 µM | SW-620 32.3 µM | K562 35.2 µM | SF-539 38.7 µM | SR 17.7 µM

COc1cc(C(c2cc3c(cc2O)OCO3)N2CCCC2)cc(OC)c1OC (configuration not stated)
inactive: 786-0 14.7 µM | OVCAR-8 16.1 µM | SN12C 12.2 µM | SK-MEL-28 23.3 µM | HCT-116 15.4 µM | OVCAR-3 17.7 µM | NCI/ADR-RES 17.3 µM | SNB-75 16.2 µM | Malme-3M 6.73 µM | T47D 23.2 µM | MCF7 26.9 µM | HCC 2998 28.5 µM | LOX IMVI 14.6 µM | NCI-H23 17.5 µM | MDA-MB-435 13.4 µM | SW-620 3.4 µM | K562 4.37 µM

N#CCc1nc(O)c2ccccc2n1
inactive: 786-0 > 100 µM | OVCAR-8 > 100 µM | SN12C > 100 µM | SK-MEL-28 > 100 µM | HCT-116 > 100 µM | OVCAR-3 69.7 µM | NCI/ADR-RES > 100 µM | SNB-75 > 100 µM | T47D 50.6 µM | MCF7 28.1 µM | HCC 2998 > 100 µM | LOX IMVI 56.4 µM | NCI-H23 > 100 µM | MDA-MB-435 > 100 µM | SW-620 > 100 µM | SF-539 > 100 µM

c1ccc(CSC2(SCc3ccccc3)CCCCC2)cc1
inactive: 786-0 > 10 µM | OVCAR-8 > 10 µM | SN12C > 10 µM | SK-MEL-28 > 10 µM | HCT-116 > 10 µM | OVCAR-3 > 10 µM | NCI/ADR-RES > 10 µM | SNB-75 > 10 µM | Malme-3M > 10 µM | T47D > 10 µM | MCF7 > 10 µM | HCC 2998 > 10 µM | LOX IMVI > 10 µM | NCI-H23 > 10 µM | SW-620 > 10 µM | K562 > 10 µM | SF-539 > 10 µM | SR > 10 µM

NCCCCCNOCCCN
inactive: 786-0 > 100 µM | OVCAR-8 > 100 µM | SN12C > 100 µM | SK-MEL-28 > 100 µM | HCT-116 > 100 µM | OVCAR-3 > 100 µM | NCI/ADR-RES > 100 µM | SNB-75 63.1 µM | Malme-3M > 100 µM | T47D > 100 µM | HCC 2998 > 100 µM | LOX IMVI > 100 µM | NCI-H23 > 100 µM | MDA-MB-435 > 100 µM | SW-620 > 100 µM | K562 > 100 µM | SF-539 > 100 µM | SR > 100 µM

CC1(C)C(CCO)CC1n1cc(I)c(=O)[nH]c1=O (configuration not stated)
inactive: 786-0 > 100 µM | SN12C > 100 µM | SK-MEL-28 > 100 µM | HCT-116 > 100 µM | OVCAR-3 > 100 µM | NCI/ADR-RES > 100 µM | SNB-75 > 100 µM | T47D > 100 µM | MCF7 > 100 µM | HCC 2998 > 100 µM | LOX IMVI > 100 µM | MDA-MB-435 > 100 µM | SW-620 > 100 µM | K562 > 100 µM | SF-539 > 100 µM

O=[N+]([O-])/C(C(Cl)=C(Cl)Cl)=C(\Nc1cccc2cccnc12)SCc1ccccc1
inactive: 786-0 21.6 µM | SN12C 25.3 µM | SK-MEL-28 19 µM | HCT-116 19.8 µM | OVCAR-3 15.5 µM | NCI/ADR-RES 21.2 µM | SNB-75 18.3 µM | Malme-3M 15.3 µM | T47D 17.7 µM | MCF7 15.3 µM | HCC 2998 18.2 µM | NCI-H23 17 µM | MDA-MB-435 21 µM | SW-620 18.4 µM | K562 13.4 µM | SF-539 16.9 µM

O=S(=O)(c1cc(Cl)ccc1Cl)N1CCN(S(=O)(=O)c2cc(Cl)ccc2Cl)CC1
inactive: 786-0 > 100 µM | OVCAR-8 > 100 µM | SN12C > 100 µM | SK-MEL-28 > 100 µM | HCT-116 > 100 µM | OVCAR-3 > 100 µM | NCI/ADR-RES > 100 µM | SNB-75 > 100 µM | Malme-3M > 100 µM | T47D > 100 µM | MCF7 > 100 µM | HCC 2998 > 100 µM | NCI-H23 4.86 µM | MDA-MB-435 > 100 µM | SW-620 > 100 µM | K562 > 100 µM | SF-539 > 100 µM

CCOC(=O)C(Cc1ccccc1)(Cc1ccc(O)cn1)NC(=O)c1ccccc1 (configuration not stated)
inactive: 786-0 24.9 µM | OVCAR-8 31.6 µM | SK-MEL-28 36.5 µM | HCT-116 24.7 µM | OVCAR-3 19.2 µM | NCI/ADR-RES 26.4 µM | SNB-75 21.6 µM | Malme-3M 14.2 µM | MCF7 22.3 µM | HCC 2998 25.1 µM | LOX IMVI 19.8 µM | NCI-H23 32.8 µM | MDA-MB-435 9.51 µM | SW-620 29.6 µM | K562 29.7 µM | SF-539 23.8 µM | SR 6.56 µM

CC1CC(N2CCOCC2)=Nc2ccccc2N1Cc1ccccc1 (configuration not stated)
inactive: 786-0 > 100 µM | OVCAR-8 88.5 µM | SN12C > 100 µM | SK-MEL-28 49.1 µM | HCT-116 > 100 µM | OVCAR-3 43.9 µM | NCI/ADR-RES 73.8 µM | Malme-3M 19 µM | LOX IMVI 43.9 µM | NCI-H23 > 100 µM | MDA-MB-435 56.2 µM | SW-620 > 100 µM | K562 19 µM

O=C(C[N+]12CN3CN(CN(C3)C1)C2)c1ccc(-c2ccccc2)cc1
inactive: 786-0 17.7 µM | OVCAR-8 32 µM | SN12C 19.7 µM | SK-MEL-28 17.6 µM | HCT-116 18.8 µM | OVCAR-3 29.3 µM | NCI/ADR-RES 33.4 µM | SNB-75 19.7 µM | Malme-3M 21.3 µM | T47D 37.2 µM | HCC 2998 15.4 µM | LOX IMVI 15.3 µM | NCI-H23 23.3 µM | MDA-MB-435 36.5 µM | SW-620 8.67 µM | K562 15 µM | SR 3.2 µM

CCN(CC)Cc1cc(Nc2ccnc3ccc4c(nnn4C)c23)ccc1O
inactive: 786-0 7.14 µM | OVCAR-8 16.1 µM | SN12C 6.1 µM | SK-MEL-28 3.98 µM | HCT-116 4.93 µM | OVCAR-3 19.3 µM | NCI/ADR-RES 19 µM | SNB-75 5.89 µM | Malme-3M 13 µM | T47D 23.9 µM | MCF7 4.03 µM | HCC 2998 1.75 µM | LOX IMVI 11.9 µM | NCI-H23 11.5 µM | K562 5.24 µM | SF-539 5.33 µM | SR 4.13 µM

O=[N+]([O-])c1ccc2c(c1)S(=O)(=O)N1Cc3ccccc3CCN21
inactive: 786-0 97.5 µM | OVCAR-8 > 100 µM | SN12C > 100 µM | SK-MEL-28 > 100 µM | HCT-116 > 100 µM | OVCAR-3 48.8 µM | NCI/ADR-RES > 100 µM | SNB-75 59.3 µM | Malme-3M > 100 µM | MCF7 > 100 µM | HCC 2998 > 100 µM | LOX IMVI > 100 µM | NCI-H23 > 100 µM | MDA-MB-435 > 100 µM | SW-620 > 100 µM | K562 > 100 µM | SF-539 54.5 µM | SR > 100 µM

CC1=CC(=O)/C(=C/n2c(=S)[nH]c3ccccc32)C(=O)O1
inactive: 786-0 > 100 µM | OVCAR-8 > 100 µM | SN12C > 100 µM | HCT-116 > 100 µM | OVCAR-3 > 100 µM | NCI/ADR-RES > 100 µM | SNB-75 35.7 µM | T47D > 100 µM | MCF7 > 100 µM | HCC 2998 > 100 µM | LOX IMVI > 100 µM | NCI-H23 > 100 µM | MDA-MB-435 > 100 µM | SW-620 > 100 µM | K562 > 100 µM | SF-539 > 100 µM

NCCO/C=C/C(N)C(=O)O (configuration not stated) [AMINOETHOXYVINYLGLYCINE]
inactive: 786-0 > 100 µM | OVCAR-8 > 100 µM | SN12C > 100 µM | SK-MEL-28 > 100 µM | HCT-116 > 100 µM | OVCAR-3 > 100 µM | NCI/ADR-RES > 100 µM | SNB-75 > 100 µM | T47D > 100 µM | MCF7 > 100 µM | HCC 2998 > 100 µM | LOX IMVI > 100 µM | NCI-H23 > 100 µM | MDA-MB-435 > 100 µM | SW-620 > 100 µM | K562 > 100 µM | SF-539 > 100 µM
